Results taken from patent US5594103A, “Lantibiotics similar to nisin a” (Stichting Nederlands Instituut Voor Zuivelonderzoek (NIZO), priority 1991, dated 1997).
In brackets after ≈: the same amount, converted by molar mass.

Experiments:
[1] = tested on: Micrococcus flavus DSM 1719; assay: agar diffusion bioassay, M. flavus as indicator; assay type: cell-based
Method: (§1) The strain NIZO 22186 was isolated from an industrially obtained fermented milk product and identified as a L. lactis strain which ferments sucrose and produces an antimicrobial activity in the culture medium. This antimicrobial activity was determined by the agar diffusion bioassay method [Tramer and Fowler, J. Sci. Food Agric. 15 (1964) 522-528] using Micrococcus flavus DSM 1719 cultured in nutrient broth(Difco) as indicator. The supernatant of a culture of strain […] cultured on lactose M17 medium (Difco) containing 0-5% sucrose or glucose contained an antimicrobial activity which, compared with strain NIZO R5 [Galesloot and Pette, Neth. […] The absorption was monitored at 220 nm. […] The purified peptide material from strain […] and purified commercial nisin A were then hydrolysed for 24 hours in 6N HCl at 110° C. under nitrogen, concentrated by freeze-drying and, after dissolving in 0.2M Na citrate buffer of pH 2.2, analyzed in a LKB 4151 amino acid analyser. […]
(§2) The antimicrobial activity of nisin Z was compared with that of nisin A. In this case, and for further comparisons of the two lantibiotics, use was made of preparations which had been purified with the aid of RP-HPLC [see above] and for which the precise amounts of lantibiotic had been determined by determining the absorption at 220 nm. […]

S. thermophilus Rs [2] = assay: agar diffusion bioassay, S. thermophilus Rs as indicator; assay type: cell-based; settings: S. thermophilus Rs in TGV medium, versus nisin A
Method: as §1, §2

M. flavus DSM1719 = assay: minimum inhibitory concentration in exponentially growing cultures; assay type: cell-based; settings: 37° C., nutrient broth
Excerpt: (§3) The antimicrobial activity of nisin Z was compared with that of nisin A. In this case, and for further comparisons of the two lantibiotics, use was made of preparations which had been purified with the aid of RP-HPLC [see above] and for which the precise amounts of lantibiotic had been determined by determining the absorption at 220 nm. […] The difference comprised both the shape and the gradient of the dose/response curve which relates the amount of lantibiotic added and the diameter of the inhibition zones. In this context it should be pointed out that nisin concentrations which are used in practice are always higher than 2.5 μg/ml [Delves-Broughton, Food Manufacture, March 1987 pp. 63-64]. so that measurements at lower concentrations are more of academic than of practical interest. […] Milk Dairy J., 15 (1961) 127-132]. […] A differentiation between these is made by determining the minimum inhibitory concentrations (MIC) of nisin Z and nisin A which effected growth inhibition in the case of the microorganisms used. In this determination use was also made of M. flavus DSM1719 and S. thermophilus Rs cultured at 37° C. in, respectively, nutrient broth (Difco) and whey permeate containing 0.2% yeast extract. […]

S. thermophilus Rs [3] = assay: as above; assay type: cell-based; settings: 37° C., whey permeate containing 0.2% yeast extract
Excerpt: as §3

[4] = tested on: Bacillus cereus (B.c.) strain 5227; assay: MIC bioassay from OD600nm inhibition curves; assay type: cell-based; settings: 6 hours at 30° C., shaken; less than 1% increase in OD600nm
Method: (§4) The antimicrobial activities referred to above were measured in a bioassay using Micrococcus flavus (M. f.) strain […], Bacillus cereus (B.c.) strain 5227 and Strepococcus thermophilus (S.t.) strain 3218 as indicator strains. Minimum inhibitory concentration (MIC) values were determined in the following way. Cultures of indicator organisms grown overnight were diluted to OD600nm values or 0.05 (M.f.) or 0.025 (S.t. and B.c.) and divided into 10 5 ml portions in tubes. These tubes were inoculated with various amounts of nisin A or (mutant) nisin Z and incubated aerobically under the following conditions (M.f.: 8 hours at 30° C., shaken; S.t.: 3 hours at 37° C., without shaking; B.c.: 6 hours at 30° C., shaken). The OD600nm was then measured. Without the addition of nisin, the final OD600nm values were approximately 1.2 for M.f., 0.5 for S.t. and 0.8 for B.c. All experiments were carried out in triplicate. The MIC values were determined from the inhibition curves by calculating the minimum concentration of (mutant) nisin at which less than a 1% increase in the OD600nm occurred. The solubilities of nisin A, nisin Z and the mutants N27K-nisin Z and H31K-nisin Z were determined in the range between pH 6.0 and pH 7.5. It can be seen from the results that in this range nisin Z is 1.5 to 2 times more soluble than nisin A and that the nisin Z mutants having an additional positive charge are 5 to 10 times more soluble than nisin A (Table 2).

[5] = tested on: Micrococcus flavus (M. f.) strain DSM 1790; assay: MIC bioassay from OD600nm inhibition curves; assay type: cell-based; settings: 8 hours at 30° C., shaken; less than 1% increase in OD600nm
Method: as §4

[6] = tested on: Strepococcus thermophilus (S.t.) strain 3218; assay: MIC bioassay from OD600nm inhibition curves; assay type: cell-based; settings: 3 hours at 37° C., without shaking; less than 1% increase in OD600nm
Method: as §4

[7] = tested on: Bacillus cereus strains VC1, P7 and C5; assay: inhibition spectrum, agar diffusion method; assay type: cell-based
Excerpt: (§5) The antimicrobial activity of nisin Z was compared with that of nisin A. In this case, and for further comparisons of the two lantibiotics, use was made of preparations which had been purified with the aid of RP-HPLC [see above] and for which the precise amounts of lantibiotic had been determined by determining the absorption at 220 nm. […] The difference comprised both the shape and the gradient of the dose/response curve which relates the amount of lantibiotic added and the diameter of the inhibition zones. In this context it should be pointed out that nisin concentrations which are used in practice are always higher than 2.5 μg/ml [Delves-Broughton, Food Manufacture, March 1987 pp. 63-64]. so that measurements at lower concentrations are more of academic than of practical interest. […] Milk Dairy J., 15 (1961) 127-132]. […] A differentiation between these is made by determining the minimum inhibitory concentrations (MIC) of nisin Z and nisin A which effected growth inhibition in the case of the microorganisms used. In this determination use was also made of M. flavus DSM1719 and S. thermophilus Rs cultured at 37° C. in, respectively, nutrient broth (Difco) and whey permeate containing 0.2% yeast extract. Various amounts of nisin Z and nisin A were added to exponentially growing cultures of both organisms, after which the growth was compared with that of cultures to which no lantibiotic had been added.

[8] = tested on: Brevibacterium linens ATCC 9174; assay: inhibition spectrum, agar diffusion method; assay type: cell-based
Excerpt: as §5

[9] = tested on: Clostridium tyrobutyricum BZ15; assay: inhibition spectrum, agar diffusion method; assay type: cell-based
Excerpt: as §5

[10] = tested on: Lactococcus lactis subsp. cremoris BA3; assay: inhibition spectrum, agar diffusion method; assay type: cell-based
Excerpt: as §5

[11] = tested on: Listeria monocytogenes strain 1, 4B, 13 and 669; assay: inhibition spectrum, agar diffusion method; assay type: cell-based
Excerpt: as §5

chymotrypsin = assay: sensitivity for proteolytic enzymes (RP-HPLC integrity and residual activity); assay type: physicochemical; settings: nisin Z versus nisin A
Method: (§6) The sensitivity of the lantibiotics for some proteolytic enzymes has been described [Hurst, see above]. The sensitivity of nisin Z and nisin A for the proteolytic enzymes trypsin and chymotrypsin were determined by determining the integrity and the biological residual activity of the lantibiotics with the aid of, respectively, RP-HPLC and the agar diffusion assay [see above] after incubation with one of these enzymes.

trypsin = assay: as above; assay type: physicochemical; settings: nisin Z versus nisin A
Method: as §6

anti-nisin A antibodies = assay: competitive ELISA with anti-nisin A antibodies; assay type: binding
Excerpt: Because the only difference between nisin Z and nisin A consists in the His27Asn substitution, the agreement between nisin Z and nisin A in respect of proteolytic sensitivity for these two enzymes is easily explainable. However, there are significant differences in physicochemical characteristics between the two abovementioned lantibiotics.

solubility determination = assay type: physicochemical; settings: for Solubility: 0.15M NaCl, room temperature

C=C(NC(=O)[C@@H](NC(=O)[C@H](Cc1c[nH]cn1)NC(=O)[C@@H](NC(=O)[C@H](CO)NC(=O)[C@@H]1CS[C@@H](C)[C@H]2NC(=O)[C@H](C)NC(=O)[C@H](NC(=O)[C@H](CCCCN)NC(=O)[C@H](CCSC)NC(=O)[C@H](CC(N)=O)NC(=O)[C@@H]3CS[C@@H](C)[C@@H](NC(=O)[C@H](CCCCN)NC(=O)[C@@H]4CS[C@@H](C)[C@@H](NC(=O)[C@@H]5CSC[C@@H](NC(=O)/C(=C/C)NC(=O)[C@@H](N)[C@@H](C)CC)C(=O)N[C@@H]([C@@H](C)CC)C(=O)NC(=C)C(=O)N[C@@H](CC(C)C)C(=O)N5)C(=O)N5CCC[C@H]5C(=O)NCC(=O)N4)C(=O)NCC(=O)N[C@@H](C)C(=O)N[C@@H](CC(C)C)C(=O)N[C@@H](CCSC)C(=O)NCC(=O)N3)[C@H](C)SC[C@H](NC2=O)C(=O)N[C@@H](CC(N)=O)C(=O)N1)[C@@H](C)CC)C(C)C)C(=O)N[C@@H](CCCCN)C(=O)O [nisin Z]
diffusion rate in an agar medium ([1]; compared with nisin A): higher diffusion rate
zones of growth inhibition (diameter of halo) ([1]; concentrations above 0.03 μg/ml, versus same amount of nisin A): always found to be greater than those obtained with the same amount of nisin A
zones of growth inhibition (S. thermophilus Rs [2]): Comparable results
minimum inhibitory concentration (MIC) (M. flavus DSM1719): 15 ng/mL (≈ 0.0045 µM)
minimum inhibitory concentration (MIC) (S. thermophilus Rs [3]): 30 ng/mL (≈ 0.00901 µM)
Minimum Inhibitory Concentration, B. cereus [4]: 130 µg/L
Minimum Inhibitory Concentration, Micrococcus flavus [5]: 11 µg/L
Minimum Inhibitory Concentration, S. thermophilus [6]: 6 µg/L
antimicrobial activity (inhibition spectrum) [7]: comparably high antimicrobial activity
antimicrobial activity (inhibition spectrum) [8]: comparably high antimicrobial activity
antimicrobial activity (inhibition spectrum) [9]: comparably high antimicrobial activity
antimicrobial activity (inhibition spectrum) [10]: comparably high antimicrobial activity
antimicrobial activity (inhibition spectrum) [11]: comparably high antimicrobial activity
sensitivity for chymotrypsin (chymotrypsin): comparable
sensitivity for trypsin (trypsin): comparable
reaction in competitive ELISA (anti-nisin A antibodies): no reaction
solubility compared with nisin A (solubility determination; alkaline pH): greater than that of nisin A
Solubility (solubility determination; pH 6.0): 2.6 mg/mL (≈ 781 µM)
Solubility (solubility determination; pH 6.5): 1.5 mg/mL (≈ 450 µM)
Solubility (solubility determination; pH 7.0): 0.8 mg/mL (≈ 240 µM)
Solubility (solubility determination; pH 7.5): 0.6 mg/mL (≈ 180 µM)
